The values that follow come from patent US8455475B2 (Gruenenthal GmbH, priority 2009, dated 2013).

In this assay the target is T1, rat B1R (bradykinin receptor 1) (Rattus norvegicus, UniProt P97583).
T1 construct: expressed in transfected cells; host or cells: CHO K1 cells
T1 sequence (P97583 1-337): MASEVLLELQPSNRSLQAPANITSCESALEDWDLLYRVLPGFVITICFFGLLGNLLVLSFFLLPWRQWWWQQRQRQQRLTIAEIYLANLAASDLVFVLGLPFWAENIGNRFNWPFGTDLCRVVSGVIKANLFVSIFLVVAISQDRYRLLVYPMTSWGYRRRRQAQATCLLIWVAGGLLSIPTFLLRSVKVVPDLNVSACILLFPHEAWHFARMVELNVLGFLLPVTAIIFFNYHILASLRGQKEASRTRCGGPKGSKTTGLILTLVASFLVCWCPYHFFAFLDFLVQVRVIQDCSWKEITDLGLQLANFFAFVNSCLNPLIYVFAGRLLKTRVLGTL
Kind of assay: FLIPR Ca2+ assay (Fluo-4) on CHO K1 cells stably transfected with the B1R gene of the rat (rB1R cells): % inhibition at 10 μM / IC50, agonist Des-Arg9-bradykinin. The assay is classed as cell-based. The settings on record: CHO-K1, rat B1R. How it is done: The agonistic or antagonistic action of substances can be quantified on the bradykinin receptor 1 (B1R) of the human and rat species with ectopically expressing cell lines (CHO K1 cells) and with the aid of a Ca^2+-sensitive dyestuff (Fluo-4) in a fluorescent imaging plate reader (FLIPR). The figure in % activation is based on the Ca^2+ signal after addition of Lys-Des-Arg^9-bradykinin (0.5 nM) or Des-Arg^9-bradykinin (100 nM). Antagonists lead to a suppression of the Ca^2+ inflow after addition of the agonist. % inhibition compared with the maximum achievable inhibition is stated.
The agonistic or antagonistic action of substances can be determined on the bradykinin receptor 1 (B1R) of the human and rat species with the following assay. In accordance with this assay, the Ca^2+ inflow through the channel is quantified with the aid of a Ca^2+-sensitive dyestuff (type Fluo-4, Molecular Probes Europe BV, Leiden, Holland) in a fluorescent imaging plate reader (FLIPR, Molecular Devices, Sunnyvale, USA).
Chinese hamster ovary cells (CHO K1 cells) transfected stably with the human B1R gene (hB1R cells) or the B1R gene of the rat (rB1R cells) are used. For functional studies, these cells are plated out on black 96-well plates with a clear base (BD Biosciences, Heidelberg, Germany or Greiner, Frickenhausen, Germany) in a density of 20,000-35,000 cells/well. The cells are left overnight at 37° C. and 5% CO2 in culture medium (hB1R cells: Nutrient Mixture Ham's F12, Gibco Invitrogen GmbH, Karlsruhe, Germany or DMEM, Sigma-Aldrich, Taufkirchen, Germany; rB1R cells: D-MEM/F12, Gibco Invitrogen GmbH, Karlsruhe, Germany) with 10 vol. % FBS (foetal bovine serum, Gibco Invitrogen GmbH, Karlsruhe, Germany or PAN Biotech GmbH, Aidenbach, Germany). On the following day, the cells are loaded for 60 min at 37° C. with 2.13 μM Fluo-4 (Molecular Probes Europe BV, Leiden Holland) in HBSS buffer (Hank's buffered saline solution, Gibco Invitrogen GmbH, Karlsruhe, Germany) with 2.5 mM probenecid (Sigma-Aldrich, Taufkirchen, Germany) and 10 mM HEPES (Sigma-Aldrich, Taufkirchen, Germany). The plates are then washed 2× with HBSS buffer, and HBSS buffer which additionally contains 0.1% BSA (bovine serum albumin; Sigma-Aldrich, Taufkirchen, Germany), 5.6 mM glucose and 0.05% gelatine (Merck KGaA, Darmstadt, Germany) is added. After a further incubation of 20 minutes at room temperature, the plates are inserted into the FLIPR for the Ca^2+ measurement. Alternatively, the plates are washed with buffer A (15 mM HEPES, 80 mM NaCl, 5 mM KCl, 1.2 mM CaCl2, 0.7 mM MgSO4, 2 g/l glucose, 2.5 mM probenecid), buffer A is added and the plates are loaded with 2.5 μM Fluo-4 and 0.025% Pluronic F127 (Sigma-Aldrich, Taufkirchen, Germany). Thereafter, the cells are washed 2× with buffer A and incubated for 30 minutes at room temperature with buffer A, which additionally contains 0.05% BSA and 0.05% gelatine, and thereafter inserted into the FLIPR for the Ca^2+ measurement. The Ca^2+-dependent fluorescence is measured here before and after addition of substances (λex=488 nm, λem=540 nm). Quantification is by measurement of the highest fluorescence intensity (FC, fluorescence counts) over time.
The FLIPR protocol consists of 2 additions of substance. Test substances (10 μM) are first pipetted on to the cells and the Ca^2+ inflow is compared with the control (hB1R: Lys-Des-Arg^9-bradykinin>=50 nM; rB1R: Des-Arg^9-bradykinin 10 μM). This gives the result in % activation based on the Ca^2+ signal after addition of Lys-Des-Arg^9-bradykinin (>=50 nM) or Des-Arg^9-bradykinin (10 μM). After incubation for 10-20 minutes, Lys-Des-Arg^9-bradykinin (hB1R) or Des-Arg^9-bradykinin (rB1R) in the concentration of the EC80 is applied and the inflow of Ca^2+ is likewise determined. Antagonists lead to a suppression of the Ca^2+ inflow. % inhibition compared with the maximum achievable inhibition is calculated.
For determination of the IC50 value, the substances are added in various concentrations. […]
Regarding `O=C(NC1CCc2ccc(C(=O)N3CCC4(CCN(CCCc5ccc(F)cc5)CC4)C3)cc21)c1cccc(Cl)c1Cl` (stereo not drawn) [IND_CC-751, 2,3-Dichloro-N-[6-[8-[3-(4-fluorophenyl)-propyl]-2,8-diazaspiro[4.5]decane-2-carbonyl]-2,3-dihydro-1H-inden-1-yl]-benzamide], the inhibition at 10 µM was determined as 98%. The result for `O=C(NC1CCc2ccc(C(=O)N3CCC4(CC3)CCN(C(=O)c3cnccn3)CC4)cc21)c1ccccc1Cl` (stereo not drawn) [IND_CC-594, 2-Chloro-N-[6-[9-(pyrazine-2-carbonyl)-3,9-diazaspiro[5.5]undecane-3-carbonyl]-2,3-dihydro-1H-inden-1-yl]-benzamide] reads 91%. The result for `O=C(NC1CCc2ccc(C(=O)N3CCC4(CCN(Cc5c(F)cccc5F)CC4)CC3)cc21)c1c(F)cccc1Cl` (stereo not drawn) [IND_CC-788, 2-Chloro-N-[6-[9-[(2,6-difluoro-phenyl)-methyl]-3,9-diazaspiro[5.5]undecane-3-carbonyl]-2,3-dihydro-1H-inden-1-yl]-6-fluoro-benzamide] reads 71%. Turning to `Cc1noc(C)c1CN1CCC2(CC1)CCN(C(=O)c1ccc3c(c1)C(NC(=O)c1c(F)cccc1Cl)CC3)C2` (stereo not drawn) [IND_CC-738, 2-Chloro-N-[6-[8-[(3,5-dimethyl-isoxazol-4-yl)-methyl]-2,8-diazaspiro-[4.5]decane-2-carbonyl]-2,3-dihydro-1H-inden-1-yl]-6-fluoro-benzamide], the inhibition at 10 µM stood at 89%. The result for `O=C(NC1CCc2ccc(C(=O)N3CCC4(CCN(C(=O)c5ccc(F)cc5F)CC4)C3)cc21)c1sccc1Cl` (stereo not drawn) [IND_CC-585, 3-Chloro-N-[6-[8-(2,4-difluoro-benzoyl)-2,8-diazaspiro[4.5]decane-2-carbonyl]-2,3-dihydro-1H-inden-1-yl]-thiophene-2-carboxylic acid amide] reads 52%. The result for `Cn1cccc1CN1CCC2(CC1)CCN(C(=O)c1ccc3c(c1)C(N(C(=O)c1ccccc1Cl)C1CC1)CC3)C2` (stereo not drawn) [IND_CC-519, 2-Chloro-N-cyclopropyl-N-[6-[8-[(1-methyl-1H-pyrrol-2-yl)-methyl]-2,8-diazaspiro[4.5]decane-2-carbonyl]-2,3-dihydro-1H-inden-1-yl]-benzamide] reads 53%; that for `CCn1cc(CN2CCC3(CC2)CCN(C(=O)c2ccc4c(c2)C(NC(=O)c2c(F)cccc2Cl)CC4)C3)c(C)n1` (stereo not drawn) [IND_CC-772, 2-Chloro-N-[6-[8-[(1-ethyl-3-methyl-1H-pyrazol-4-yl)-methyl]-2,8-diazaspiro-[4.5]decane-2-carbonyl]-2,3-dihydro-1H-inden-1-yl]-6-fluoro-benzamide], 52%.

With `O=C(NC1CCc2ccc(C(=O)N3CCC4(CCN(Cc5cc(F)ccc5F)CC4)CC3)cc21)c1cc(C(F)(F)F)ccc1Cl` (stereo not drawn) [IND_CC-646, 2-Chloro-N-[6-[9-[(2,5-difluoro-phenyl)-methyl]-3,9-diazaspiro[5.5]undecane-3-carbonyl]-2,3-dihydro-1H-inden-1-yl]-5-(trifluoromethyl)-benzamide], the inhibition at 10 µM was found to be 66%. The result for `O=C(NC1CCc2ccc(C(=O)N3CCC4(CCN(Cc5ccc(F)cc5Cl)CC4)CC3)cc21)c1ccccc1Cl` (stereo not drawn) [IND_CC-529, 2-Chloro-N-[6-[9-[(2-chloro-4-fluoro-phenyl)-methyl]-3,9-diazaspiro[5.5]undecane-3-carbonyl]-2,3-dihydro-1H-inden-1-yl]-benzamide] reads 104%; that for `Cn1nnc2cc(CN3CCC4(CC3)CCN(C(=O)c3ccc5c(c3)C(NC(=O)c3cc(Cl)ccc3F)CC5)CC4)ccc21` (stereo not drawn) [IND_CC-679, 5-Chloro-2-fluoro-N-[6-[9-[(1-methyl-1H-benzotriazol-5-yl)-methyl]-3,9-diazaspiro[5.5]undecane-3-carbonyl]-2,3-dihydro-1H-inden-1-yl]-benzamide], 82%. For the compound `O=C(NC1CCc2ccc(C(=O)N3CCC4(CCN(C(=O)NC5CCCCC5)CC4)CC3)cc21)c1ccccc1Cl` (stereo not drawn) [IND_CC-708, 3-[3-[(2-Chloro-benzoyl)amino]-2,3-dihydro-1H-indene-5-carbonyl]-N-cyclohexyl-3,9-diazaspiro[5.5]undecane-9-carboxylic acid amide], the inhibition at 10 µM was 99%. With `CC1(C)CC(NS(=O)(=O)c2ccc(Cl)cc2Cl)c2cc(C(=O)N3CCC4(CC3)CCN(c3ccncc3)CC4)ccc21` (stereo not drawn) [IND_CC-335, 2,4-Dichloro-N-[3,3-dimethyl-6-(3-pyridin-4-yl-3,9-diazaspiro[5.5]undecane-9-carbonyl)-1,2-dihydro-inden-1-yl]-benzenesulfonic acid amide], the inhibition at 10 µM stood at 102%.

As to `O=C(c1ccc2c(c1)C(NS(=O)(=O)Cc1cccc(Cl)c1)CC2)N1CCC2(CC1)CCN(c1ccncc1)C2` (stereo not drawn) [IND_CC-353, 1-(3-Chlorophenyl)-N-[6-(2-pyridin-4-yl-2,8-diazaspiro[4.5]decane-8-carbonyl)-2,3-dihydro-1H-inden-1-yl]-methanesulfonic acid amide], the inhibition at 10 µM is 97%. The result for `O=C(c1ccc2c(c1)C(NS(=O)(=O)Cc1ccccc1F)CC2)N1CCC2(CC1)CCN(c1ccncc1)C2` (stereo not drawn) [IND_CC-350, 1-(2-Fluorophenyl)-N-[6-(2-pyridin-4-yl-2,8-diazaspiro[4.5]decane-8-carbonyl)-2,3-dihydro-1H-inden-1-yl]-methanesulfonic acid amide] reads 106%. For `Cc1c(CN2CCC3(CC2)CCN(C(=O)c2ccc4c(c2)C(NC(=O)c2ccccc2Cl)CC4)C3)cnn1C` (stereo not drawn) [IND_CC-559, 2-Chloro-N-[6-[8-[(1,5-dimethyl-1H-pyrazol-4-yl)-methyl]-2,8-diazaspiro[4.5]decane-2-carbonyl]-2,3-dihydro-1H-inden-1-yl]-benzamide], the inhibition at 10 µM was 56%. On to `CN(C(=O)CCC1CCCC1)C1CCc2ccc(C(=O)N3CCC4(CC3)CCN(c3ccncc3)CC4)cc21` (stereo not drawn) [IND_CC-412, 3-Cyclopentyl-N-methyl-N-[6-(9-pyridin-4-yl-3,9-diazaspiro[5.5]undecane-3-carbonyl)-2,3-dihydro-1H-inden-1-yl]-propionamide], for which the inhibition at 10 µM stood at 99%. On to `O=C(NC1CCc2ccc(C(=O)N3CCC4(CCN(Cc5ccc(F)cc5F)CC4)CC3)cc21)c1ccccc1Cl` (stereo not drawn) [IND_CC-516, 2-Chloro-N-[6-[9-[(2,4-difluoro-phenyl)-methyl]-3,9-diazaspiro[5.5]undecane-3-carbonyl]-2,3-dihydro-1H-inden-1-yl]-benzamide], for which the inhibition at 10 µM was determined as 102%. The result for `CCCC(=O)N(C)C1CCc2ccc(C(=O)N3CCC4(CC3)CCN(c3ccncc3)CC4)cc21` (stereo not drawn) [IND_CC-410, N-Methyl-N-[6-(9-pyridin-4-yl-3,9-diazaspiro[5.5]undecane-3-carbonyl)-2,3-dihydro-1H-inden-1-yl]-butyramide] reads 97%.

As usually defined, the inhibition is the drop in the measured response relative to a control, in per cent.
